The values that follow come from patent US9024043B2, “Pimarane diterpenes from Anisochilus verticillatus” (Council of Scientific & Industrial Research, priority 2011, dated 2015).

Test [1] concerns THP-1 (Human acute leukemia cells) cell lines. Briefly: Cytotoxicity studies (MTT assay). Format: cell-based. Particulars: for inhibition at 100 µg/mL: Homo sapiens, THP-1, 100 μg/ml, 72 h, MTT, read-out: % Inhibition on Thp-1 cell line at 100 μg/ml. The protocol: Compounds 3 was tested at IC90 values and also at higher concentration, 100 μg/ml, for their in vitro cytotoxicity against THP-1 (Human acute leukemia cells) cell lines procured from National Cell Repository, India.
About 10,000 cells were taken per well in 96-well tissue culture plates and treated with compound 3 at IC90 values and also at higher concentration, 100 μg/ml for 72 h. Vehicle control (DMSO, 1%) and positive control (Paclitaxel, 100 μg/ml) were run simultaneously. Cell proliferation was assessed with 10 μl from 5 mg/ml stock solution of tetrazolium salt (MTT) dissolved in cell culture medium and subsequently incubated for additional 1 h at 37° C., 5% of CO2 and 95% humidity in incubator. The violet coloured formazan crystals formed were solubilized in 200 μl of isopropanol and incubated for another 4 h. The optical density was read on a micro plate reader (Spectramax plus384 plate reader, Molecular Devices Inc) at 490 nm filter against a blank prepared from cell-free wells. Absorbance given by cells treated with the carrier DMSO alone was taken as 100% cell growth. All experiments were performed in triplicate, and the quantitative value was expressed as the average±standard deviation.
Background: Formazan colour is commonly taken as a measure of viable cells.

The test system of test [2] is Mycobacterium tuberculosis H37Ra. Briefly: Anti-mycobacterial activity (XTT-menadione assay). Format: cell-based. Particulars: for IC90: concentration exhibiting 90% inhibition against growth, H37Ra, 8th day of incubation, read-out: IC90 value determined against M. tuberculosis; for antimycobacterial activity against M. tuberculosis (in words): in vitro; for inhibition at 100 µg/mL: read-out: % inhibition at 100 μg/ml against M. tuberculosis (footnote c). How it is done:
All the isolated compounds and whole acetone extract were tested for their in vitro effect against Mycobacterium tuberculosis H37Ra culture maintained in-house.
M. tuberculosis, H37Ra (ATCC 25177) cells were grown to logarithmic phase (O.D.595˜1.0) in a defined medium (M. pheli medium) under aerobic conditions in a shaker incubator (Thermo Electron Corporation Model 481) maintained at 150 rpm and 37° C. After growth, the culture was sonicated for 2 min using a water bath sonicator. Sonicated cells were used for inoculation in micro plate wells. 250 μl of the culture containing ˜10 5 cells/ml was added to each well of 96 well plates. 2.5 μl of the test samples dissolved in DMSO was added to the wells to attain a final concentration of 100 ug/ml respectively for the preliminary screening. Dose response curve of the active compounds was carried out by making serial dilutions of the test samples. Then, the plate was incubated in a CO2 incubator at 37° C. The plate was taken out on the 8th day of incubation to measure the viable cell counts. The optical density of the culture was measured before addition of XTT at 470 nm which was served as a blank for the MIC calculations. 200 μM XTT was added and incubated for 20 min at 37° C. after shaking for 1 min. After 20 min of incubation, 60 μM menadione was added and incubated at 37° C. for 40 min after mixing of 1 min. Finally, the optical density of the suspension was measured at 470 nm by using microplate reader.

The mark [3] stands for this setting: Mycobacterium tuberculosis, H37RA.

Structures are written as SMILES. In brackets after ≈: the same amount, converted by molar mass. Entries after “also recorded” stand apart in the source; their conditions may differ.

Consider `CC(=O)O[C@H]1C(=O)[C@@]2(C)[C@H]([C@H](OC(=O)c3ccccc3)[C@]3(O)C[C@H](OC(=O)[C@H](O)[C@@H](NC(=O)c4ccccc4)c4ccccc4)C(C)=C1C3(C)C)[C@]1(OC(C)=O)CO[C@@H]1C[C@@H]2O` [Paclitaxel, reference compound], for which, in test [1], the inhibition at 100 µg/mL turned out to be 61%.

In general, IC90 refers to the concentration at which the effect reaches the 90% level. On to `NNC(=O)c1ccncc1` [Isoniazid, reference compound], for which the IC90 in test [2] (Mycobacterium tuberculosis) is 0.05 ± 0.003 µg/mL (≈ 0.365 µM).

The term IC50 denotes the concentration at which inhibition is half-maximal. With `C=CCc1ccc(O)c(O)c1` [Compound 4, Hydroxychavicol], the IC50 in test [2] (Mycobacterium tuberculosis, H37RA, read-out: IC50 against growth of M. tuberculosis (footnote d)) worked out at 12.5 µg/mL (≈ 83.2 µM). Also, the “antimycobacterial activity against M. tuberculosis (in words)” value (from here on “antimycobacterial activity”) in test [2] is “effective”.

On to `C=C[C@@]1(C)CC[C@@]2(O)[C@]3(CC[C@@]4(OO3)C(C)(C)CCC[C@]24C)C1` [Compound 1, pimarane-5,8-peroxide], for which the inhibition at 100 µg/mL in test [2] (setting [3]) was determined as 42.9%. Further, the “antimycobacterial activity” value in test [2] is given as “effective”.

In the case of `C=C[C@@]1(C)CC[C@H]2[C@@](O)(C[C@@H](O)[C@@]3(O)C(C)(C)CCC[C@]23C)C1` [Compound 2, pimarane-triol], the IC90 in test [2] (Mycobacterium tuberculosis) was determined as 20 µg/mL (≈ 62 µM). The “antimycobacterial activity” value in test [2] is on record as “effective”.

Take `C=C[C@@]1(C)CC[C@@]2(O)[C@@](O)(C[C@@H](O)[C@@]3(O)C(C)(C)CCC[C@]23C)C1` [Compound 3, pimarane-tetrol]: the inhibition at 100 µg/mL in test [2] (setting [3]) was found to be 35%; in test [1], 57.2%. For the same compound, the “antimycobacterial activity” value in test [2] is on record as “effective”. Besides, the “anti-cancer activity against THP-1 cell lines (in words)” value in test [1] (in vitro) is “showed anti-cancer activity; also recorded: comparable to that of known standard drug, paclitaxel”.
